Assay results as given in patent US20040024027A1 (priority 2000, published 2004).

Experiment: Exposure to 75% Relative Humidity atmosphere (re-weighing and infrared spectrum)
Assay type: physicochemical
Details: sealed container, 75% Relative Humidity (saturated sodium chloride solution), 21° C., 96 hours
Text: The sample was re-weighed and the infrared spectrum of the product recorded.

Infrared spectrum after humidity exposure: no change | Sample weight after humidity exposure: no weight gain
SMILES: CN(CCOc1ccc(CC2SC(=O)NC2=O)cc1)c1ccccn1.I (centres unmarked) [Hydriodide, 5-[4-[2-(N-Methyl-N-(2-pyridyl)amino)ethoxy]benzyl]thiazolidine-2,4-dione Hydriodide]
